Data on 1 compound can be found in publication PMC4086741 (Molecular Pharmaceutics, 2014).

Usually IC20 stands for the concentration needed for an effect of 20%.

One series has as its target P-gp (Homo sapiens, UniProt P08183). As to the kind of experiment: Calcein-AM transport. To be noted: P-gp-overexpressing KB-V1 cells, probe calcein-AM (0.5 μg/mL).
Another series addresses T1, ABCG2 (Homo sapiens, UniProt Q9UNQ0).
T1 sequence (Q9UNQ0 1-655): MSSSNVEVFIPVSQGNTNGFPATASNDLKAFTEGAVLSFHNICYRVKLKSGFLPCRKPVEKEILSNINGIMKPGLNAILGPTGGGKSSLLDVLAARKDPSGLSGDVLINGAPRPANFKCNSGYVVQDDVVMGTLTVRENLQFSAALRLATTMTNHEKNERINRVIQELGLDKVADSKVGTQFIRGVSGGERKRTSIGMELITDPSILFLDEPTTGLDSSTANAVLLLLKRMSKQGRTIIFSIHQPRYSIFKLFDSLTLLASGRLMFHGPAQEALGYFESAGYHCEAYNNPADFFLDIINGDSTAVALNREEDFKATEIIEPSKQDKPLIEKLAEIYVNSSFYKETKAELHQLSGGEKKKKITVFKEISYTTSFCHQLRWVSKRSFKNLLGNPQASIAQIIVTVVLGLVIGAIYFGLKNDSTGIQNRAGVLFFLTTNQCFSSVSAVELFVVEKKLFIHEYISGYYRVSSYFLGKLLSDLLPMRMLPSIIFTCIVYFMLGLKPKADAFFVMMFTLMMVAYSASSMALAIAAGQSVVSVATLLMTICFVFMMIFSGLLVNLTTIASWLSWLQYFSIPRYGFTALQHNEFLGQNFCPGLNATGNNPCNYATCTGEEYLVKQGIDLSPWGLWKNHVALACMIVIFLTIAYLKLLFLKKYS
Description: Mitoxantrone transport. To be noted: ABCG2-overexpressing MCF7-FLV1000 cells, probe mitoxantrone (5 μM).

Molecules are shown by their SMILES.

Sequence of P-gp (P08183 whole entry): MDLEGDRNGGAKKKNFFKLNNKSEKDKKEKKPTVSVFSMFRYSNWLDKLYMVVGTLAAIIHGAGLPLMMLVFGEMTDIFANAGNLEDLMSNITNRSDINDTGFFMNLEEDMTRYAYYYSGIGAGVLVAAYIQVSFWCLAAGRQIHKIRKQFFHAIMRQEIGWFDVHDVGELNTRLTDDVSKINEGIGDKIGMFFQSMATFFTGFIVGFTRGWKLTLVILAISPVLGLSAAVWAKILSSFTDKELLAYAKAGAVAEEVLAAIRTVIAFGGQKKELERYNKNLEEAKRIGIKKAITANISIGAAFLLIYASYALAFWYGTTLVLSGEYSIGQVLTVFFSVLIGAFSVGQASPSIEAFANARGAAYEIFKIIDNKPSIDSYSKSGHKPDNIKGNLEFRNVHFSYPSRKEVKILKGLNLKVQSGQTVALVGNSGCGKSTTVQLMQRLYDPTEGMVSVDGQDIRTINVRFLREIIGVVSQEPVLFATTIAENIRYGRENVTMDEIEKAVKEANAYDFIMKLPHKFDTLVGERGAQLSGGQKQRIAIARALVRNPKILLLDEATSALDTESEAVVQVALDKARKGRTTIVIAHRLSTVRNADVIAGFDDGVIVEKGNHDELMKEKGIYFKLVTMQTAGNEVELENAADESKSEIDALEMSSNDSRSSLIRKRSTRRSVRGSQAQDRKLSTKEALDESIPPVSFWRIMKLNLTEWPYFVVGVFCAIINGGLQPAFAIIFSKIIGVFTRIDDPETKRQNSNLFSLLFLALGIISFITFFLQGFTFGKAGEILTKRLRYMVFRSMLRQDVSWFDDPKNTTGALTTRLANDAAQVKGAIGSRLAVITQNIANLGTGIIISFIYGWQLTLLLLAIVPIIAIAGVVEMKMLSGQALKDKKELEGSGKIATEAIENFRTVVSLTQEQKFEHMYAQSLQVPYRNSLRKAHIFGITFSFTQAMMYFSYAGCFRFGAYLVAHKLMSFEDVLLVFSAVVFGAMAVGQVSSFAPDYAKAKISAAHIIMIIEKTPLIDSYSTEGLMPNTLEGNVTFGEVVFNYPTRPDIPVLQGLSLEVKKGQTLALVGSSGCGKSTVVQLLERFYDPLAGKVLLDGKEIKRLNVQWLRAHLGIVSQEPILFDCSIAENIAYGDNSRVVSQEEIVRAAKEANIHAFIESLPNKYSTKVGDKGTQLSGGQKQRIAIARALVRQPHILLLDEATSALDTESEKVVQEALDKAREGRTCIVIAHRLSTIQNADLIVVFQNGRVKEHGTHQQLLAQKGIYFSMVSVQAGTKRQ

On to `Cc1cn(-c2cc(NC(=O)c3ccc(C)c(Nc4nccc(-c5cccnc5)n4)c3)cc(C(F)(F)F)c2)cn1` [nilotinib, Nilotinib], for which the IC20 was 1.16 µM at P-gp and 0.24 µM against ABCG2.
